# Tested on: KRAS-mutant PDC multicell tumor spheroid viability
# Assay: Anticancer human tumor 521955-158-R2-J5-PDC patient-derived pancreatic carcinoma cell line growth inhibition [KRAS2]
# Conditions: for IC50: curve of first compound; for viability, T/C: stronger effect = lower value
# Excerpt: Multicellular complex tumor spheroid response to RAS pathway inhibitors in combination with a targeted agents in patient-derived cell lines with oncogenic KRAS variants from multiple cancer types
# A high-throughput screen of multi-cell type tumor spheroids was designed to identify active combinations of targeted small molecules and KRAS pathway inhibitors. Complex spheroids include a stromal component modeled by human endothelial cells (HUVEC) and fibroblasts modeled by human mesenchymal stem cells (MSCs). The concentration ranges selected for each drug and investigational agent were based upon clinically achievable concentrations if the clinical Cmax of the agent was known.
# Compounds. The drugs and investigational agents: BI-3406 (NSC825286), BAY-293 (NSC824723), batoprotafib (TNO155; NSC825523), sotorasib (AMG 510; NSC818433), MRTX1257 (NSC819558), elimusertib (BAY 1895344; NSC800525), molibresib (GSK525762; NSC774829), temuterkib (LY3214996; NSC803410), venetoclax (NSC766270), alisertib (NSC759677), olaparib (NSC753686), talazoparib (NSC767125), erdafitinib (NSC781556), ipatasertib (NSC767898), cabozantinib (NSC761068), nintedanib (NSC756659), abemaciclib (NSC768073), docetaxel (NSC628503), trametinib (NSC758246), and sapanisertib (NSC764658) were obtained from the National Cancer Institute (NCI) Developmental Therapeutics Program Chemical Repository. The FDA-approved anticancer drug set is available from the Developmental Therapeutics Program. […] The stock solutions were prepared in dimethyl sulfoxide (DMSO, Sigma-Aldrich, St. Louis, MO, cat. D2650) at 800-fold the tested concentration and stored at -70 degrees C prior to their use. All drugs and investigational agents were tested over a range starting from a high concentration at or near the clinical Cmax and decreasing in half-log increments. If the clinical Cmax for an agent had not been determined, the highest concentration tested was 10 microM.
# Cell Culture. All cells were maintained in an incubator at 37 degrees C and 5% CO2 with 95% humidity. The PDC lines were cultured according to standard operating procedures established by the NCI PDMR (https://pdmr.cancer.gov/sops/default.htm). Briefly, all PDCs were thawed and cultured in Matrigel-coated flasks prepared with a working solution of 1X Ham's F-12 nutrient mix, without supplementation (Invitrogen, Waltham, MA, cat. 11765054), 100 U/mL penicillin-streptomycin (Invitrogen, cat. 15140122), and 2.5% Matrigel (Corning Inc., Corning, NY, cat. 354248) for the first three passages. All PDCs were cultured in complete DMEM/F-12 media containing advanced DMEM/F-12 (Invitrogen, cat. 12634028), 4.9% defined fetal bovine serum, heat inactivated (HyClone Laboratories Inc., Logan, UT, cat. SH30070.03HI), 389 ng/mL hydrocortisone (Sigma-Aldrich, cat. H4001), 9.7 ng/mL human EGF recombinant protein (Invitrogen, cat. PHG0313), 23.4 microg/mL adenine (Sigma-Aldrich, cat. A2786), 97.3 U/mL penicillin-streptomycin (Invitrogen, cat. 15140122), 1.9 mM L-glutamine (Invitrogen, cat. 25030081), and 9.7 microM Y-27632 dihydrochloride (Tocris Bioscience, Bristol, United Kingdom, cat. 1254). The PDCs were cultured in complete DMEM/F12 media without 9.7 microM Y-27632 dihydrochloride for at least two passages prior to the screen. The established cell line HOP-62 was cultured in RPMI 1640 medium, HEPES (Invitrogen, cat. 22400105) with 10% defined fetal bovine serum (HyClone Laboratories Inc., cat. SH30070.03) and 2 mM L-glutamine (Invitrogen, cat. 25030081). The pooled donor HUVEC were cultured in endothelial cell growth medium 2 (PromoCell, Heidelberg, Germany, cat. C-22011) and the hMSC were cultured in mesenchymal stem cell growth medium 2 (PromoCell, cat. C-28009). For all experiments, HUVEC and hMSC were used at passages </=5, while the malignant cell lines were used at passages </=15. […]
# [1] = second compound 0.1 µM, first compound 0.01 µM
# [2] = second compound 0.1 µM, first compound 0.0316 µM
# [3] = second compound 0.1 µM, first compound 0.1 µM
# [4] = second compound 0.1 µM, first compound 0.316 µM
# [5] = second compound 0.1 µM, first compound 1 µM
# [6] = second compound 0.316 µM, first compound 0.01 µM
# [7] = second compound 0.316 µM, first compound 0.0316 µM
# [8] = second compound 0.316 µM, first compound 0.1 µM
# [9] = second compound 0.316 µM, first compound 0.316 µM
# [10] = second compound 0.316 µM, first compound 1 µM
# [11] = second compound 1 µM, first compound 0.01 µM
# [12] = second compound 1 µM, first compound 0.0316 µM
# [13] = second compound 1 µM, first compound 0.1 µM
# [14] = second compound 1 µM, first compound 0.316 µM
# [15] = second compound 1 µM, first compound 1 µM
# [16] = second compound 3.16 µM, first compound 0.01 µM
# [17] = second compound 3.16 µM, first compound 0.0316 µM
# [18] = second compound 3.16 µM, first compound 0.1 µM
# [19] = second compound 3.16 µM, first compound 0.316 µM
# [20] = second compound 3.16 µM, first compound 1 µM
# [21] = second compound 10 µM, first compound 0.0316 µM
# [22] = second compound 10 µM, first compound 0.1 µM
# [23] = second compound 10 µM, first compound 0.316 µM
# [24] = second compound 10 µM, first compound 1 µM
# [25] = second compound 0.1 µM, first compound 3.16 µM
# [26] = second compound 0.1 µM, first compound 10 µM
# [27] = second compound 0.316 µM, first compound 3.16 µM
# [28] = second compound 0.316 µM, first compound 10 µM
# [29] = second compound 1 µM, first compound 3.16 µM
# [30] = second compound 1 µM, first compound 10 µM
# [31] = second compound 3.16 µM, first compound 3.16 µM
# [32] = second compound 3.16 µM, first compound 10 µM
# [33] = second compound 10 µM, first compound 3.16 µM
# [34] = second compound 10 µM, first compound 10 µM
# 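Note: viability read after seven days of drug exposure.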
Structure (SMILES),IC50 (second compound 0.1 µM),IC50 (second compound 0.316 µM),IC50 (second compound 1 µM),IC50 (second compound 3.16 µM),"viability, T/C [2]","viability, T/C [3]","viability, T/C [4]","viability, T/C [5]","viability, T/C [7]","viability, T/C [8]","viability, T/C [9]","viability, T/C [10]","viability, T/C [12]","viability, T/C [13]","viability, T/C [14]","viability, T/C [15]","viability, T/C [17]","viability, T/C [18]","viability, T/C [19]","viability, T/C [20]",also measured
CCN1CCN(Cc2ccc(Nc3ncc(F)c(-c4cc(F)c5nc(C)n(C(C)C)c5c4)n3)nc2)CC1 + C=CC(=O)N1CCN(c2nc(=O)n(-c3c(C)ccnc3C(C)C)c3nc(-c4c(O)cccc4F)c(F)cc23)C(C)C1,> 1 µM,> 1 µM,> 1 µM,> 1 µM,110%,100%,122%,97.2%,91.1%,101%,117%,109%,94.5%,95.5%,113%,96.7%,91.8%,80.5%,88.4%,88.8%,"IC50 (second compound 10 µM): > 1 µM; viability, T/C (second compound 0.1 µM, first compound 0.00316 µM): 113%; viability, T/C [1]: 100%; viability, T/C (second compound 0.316 µM, first compound 0.00316 µM): 114%; viability, T/C [6]: 108%; viability, T/C (second compound 1 µM, first compound 0.00316 µM): 112%; viability, T/C [11]: 108%; viability, T/C (second compound 3.16 µM, first compound 0.00316 µM): 89.2%; viability, T/C [16]: 99.4%; viability, T/C (second compound 10 µM, first compound 0.00316 µM): 81%; viability, T/C (second compound 10 µM, first compound 0.01 µM): 88.3%; viability, T/C [21]: 89.4%; viability, T/C [22]: 74.6%; viability, T/C [23]: 66.7%; viability, T/C [24]: 50.7%"
CC1(C)CCC(CN2CCN(c3ccc(C(=O)NS(=O)(=O)c4ccc(NCC5CCOCC5)c([N+](=O)[O-])c4)c(Oc4cnc5[nH]ccc5c4)c3)CC2)=C(c2ccc(Cl)cc2)C1 + CC1OCC2(CCN(c3cnc(Sc4ccnc(N)c4Cl)c(N)n3)CC2)C1N,5.3 µM,4.27 µM,1.37 µM,< 0.0316 µM,70.5%,75.5%,74%,81.3%,62.2%,71.7%,51.1%,63.5%,53.5%,51.5%,54.1%,50.3%,48.1%,41.3%,35.1%,41.4%,"IC50 (second compound 10 µM): < 0.0316 µM; viability, T/C [25]: 89.9%; viability, T/C [26]: 15.3%; viability, T/C [27]: 69.2%; viability, T/C [28]: 11.9%; viability, T/C [29]: 45.7%; viability, T/C [30]: 8.54%; viability, T/C [31]: 46.7%; viability, T/C [32]: 8.81%; viability, T/C [21]: 40.3%; viability, T/C [22]: 47.5%; viability, T/C [23]: 37.2%; viability, T/C [24]: 40.5%; viability, T/C [33]: 17.1%; viability, T/C [34]: 1.93%"
CC(=O)OC12COC1CC(O)C1(C)C(=O)C(O)C3=C(C)C(OC(=O)C(O)C(NC(=O)OC(C)(C)C)c4ccccc4)CC(O)(C(OC(=O)c4ccccc4)C21)C3(C)C (stereo not given) + C=CC(=O)N1CCN(c2nc(OCC3CCCN3C)nc3c2CCN(c2cccc4cccc(C)c24)C3)CC1CC#N,< 0.01 µM,< 0.01 µM,< 0.01 µM,< 0.01 µM,16.3%,12.6%,12.7%,15.1%,10%,9.97%,11.8%,17.3%,13.2%,10%,9.11%,11.5%,15.5%,15.3%,15.8%,16.9%,"IC50 (second compound 0.0316 µM): < 0.01 µM; viability, T/C (second compound 0.0316 µM, first compound 0.01 µM): 21.3%; viability, T/C (second compound 0.0316 µM, first compound 0.0316 µM): 15.8%; viability, T/C (second compound 0.0316 µM, first compound 0.1 µM): 12.7%; viability, T/C (second compound 0.0316 µM, first compound 0.316 µM): 15.2%; viability, T/C (second compound 0.0316 µM, first compound 1 µM): 15.4%; viability, T/C (second compound 0.0316 µM, first compound 3.16 µM): 20.6%; viability, T/C [1]: 19.4%; viability, T/C [25]: 18.3%; viability, T/C [6]: 19.3%; viability, T/C [27]: 19.8%; viability, T/C [11]: 18.9%; viability, T/C [29]: 14.3%; viability, T/C [16]: 22.1%; viability, T/C [31]: 21.8%"
COC(=O)c1ccc2c(C(=Nc3ccc(N(C)C(=O)CN4CCN(C)CC4)cc3)c3ccccc3)c(O)[nH]c2c1 + CNCc1ccccc1-c1csc(C(C)Nc2nc(C)nc3cc(OC)c(OC)cc23)c1,2.26 µM,1.8 µM,1.96 µM,< 0.0316 µM,87.3%,111%,103%,123%,90%,101%,100%,107%,97.1%,103%,115%,95.3%,0.52%,0.17%,0.16%,0.15%,"IC50 (second compound 10 µM): < 0.0316 µM; viability, T/C [25]: 26.9%; viability, T/C [26]: 1.42%; viability, T/C [27]: 2.22%; viability, T/C [28]: 0.15%; viability, T/C [29]: 17.5%; viability, T/C [30]: 0.14%; viability, T/C [31]: 0.07%; viability, T/C [32]: 0.59%; viability, T/C [21]: 0.14%; viability, T/C [22]: 0.13%; viability, T/C [23]: 0.13%; viability, T/C [24]: 0.13%; viability, T/C [33]: 0.12%; viability, T/C [34]: 0.19%"

# Source: PubChem BioAssay AID1963871 (Molecular Pharmacology Branch, DTP, NCI, 2024)
